Test [1] concerns rat adjuvant arthritis model. In words: Rat adjuvant arthritis model. Conditions: for Bone destruction score / Bone destruction score (% inhibition): Table 2; for Bone destruction score: soft X-ray of calcaneus, adjuvant-untreated paw, day 21, maximum 5, mean ± standard error, oral comparators; for Bone destruction score (% inhibition) / inhibition of the increase in paw volume, adjuvant-untreated paw: vs solvent group; for inhibition of the increase in paw volume, adjuvant-untreated paw: day 21, oral, 1 mL per 100 g: sodium diclofenac 0.3 mg/mL, methotrexate 0.01 mg/mL, prednisolone 0.3 mg/mL; for inhibition of the increase (decrease) in amount of glycosaminoglycan in urine / inhibition of the increase (decrease) in amount of deoxypyridinoline in urine: urine day 20 to 21, oral comparators vs solvent group; for inhibition of the increase (decrease) in amount of glycosaminoglycan in urine: diclofenac and prednisolone not significant; for inhibition of the increase (decrease) in amount of deoxypyridinoline in urine: methotrexate and prednisolone not significant. The test is classed as in vivo. How it is done:
The rat adjuvant arthritis model was performed in the following manner according to the method of Pearson et al. (Pearson CM. et al., Arthritis Rheum., 5, 654-658, 1962) using Lewis rats (female, 8 weeks old, Japan Charles River).
Mycobacterium butyricum (manufactured by Difco) was suspended in a liquid paraffin (manufactured by Wako Pure Chemical Industries, Ltd.) to a final concentration of 6 mg/mL, and sterilized with a autoclave. The resulting solution was intradermally injected into the rat right hind pad in an amount of 100 μL for sensitization. One group consisted of 8 to 10 rats. Anti-FGF-8 neutralizing antibody KM1334 was dissolved in saline to a final concentration of 2 mg/mL. The solution was intraperitoneally administered to a KM1334 administrated group once a day at a dose of 0.5 mL per 100 g of the body weight for each rat on the sensitization day of the rat adjuvant arthritis model and on days 3, 7, 10, 14 and 17 from the sensitization. To saline administrated group, only saline was intraperitoneally administered instead of the anti-FGF-8 neutralizing antibody KM1334 solution. Further, sodium diclofenac, an antiinflammatory agent, was dissolved in a 0.5 w/v % methyl cellulose solution to a final concentration of 0.3 mg/mL, and the solution was orally administered to a sodium diclofenac administrated group as a positive control once a day at a dose of 1 mL per 100 g of the body weight on days 4, 7 to 11 and 14 to 18 from the adjuvant sensitization day. 50 mg of methotrexate® for injection (manufactured by Wyeth Japan) as a metabolic antagonist was dissolved in a 0.5 w/v % methyl cellulose solution to a final concentration of 0.01 mg/mL, and the solution was administered to a methotrexate administrated group in the same manner as in the sodium diclofenac administrated group. Prednisolone (manufactured by Sigma-Aldrich), a steroidal agent, was suspended in a 0.5 w/v % methyl cellulose solution to a final concentration of 0.3 mg/mL, and the suspension was administered to a prednisolone administrated group in the same manner as in the sodium diclofenac administrated group. Further, a 0.5 w/v % methyl cellulose solution alone was orally administered to a solvent administrated group in the same manner. An untreated group was used, and it was not subjected to sensitization with Mycobacterium butyricum and administration of an agent. The volumes of the adjuvant-treated paw and the adjuvant-untreated paw were measured as time goes by using a device for measuring edemas of rat hind paw (TK-101, manufactured by Unicom).
Using urine collected for 24 hours at day 20 and day 21 after the sensitization, the amounts of glycosaminoglycan, deoxypyridinoline, hydroxyproline and creatinine in urine were measured. The amount of glycosaminoglycan in urine was measured by the DMMB method described in Example 1. The amount of hydroxyproline in urine was measured by the method of Ikeda et al. (Ikeda Shingo et al., Tokyo Eiken Nenpo, 36 277-282, 1985). That is, 0.8 mL of hydrochloric acid for amino acid analysis (manufactured by Kanto Kagaku) was added to 0.8 mL of urine to hydrolyze at 110° C. for 15 hours. To 0.5 mL of the hydrolyzed sample was added 2 mL of a 1.2 mol/L sodium hydroxide solution for neutralization. 1 mL of isopropanol was added to 0.5 mL of the neutralized sample, and 1 ml of an oxidant solution was added. The mixture was stirred well, and allowed to stand at room temperature for 5 minutes. […]

Test [2] has as its target T1, compound 1 as a partial peptide of FGF-8 (Homo sapiens, UniProt P55075).
T1 construct: 17; made in house; host or cells: chemical synthesis
T1 sequence (P55075 with tags, fused parts or gaps isoform P55075-3 limits assumed): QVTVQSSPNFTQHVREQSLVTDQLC
In words: FGF-8 binding activity by BIAcore 2000, immobilized biotin-labeled compound 1. Conditions: antibody 16.7 μg/mL; FGF-8 peptide immobilized 35 RU. The method, then:
In order to examine the FGF-8 binding activity of the anti-FGF-8 neutralizing CDR-grafted antibodies obtained in 5. of Reference Example 3, the FGF-8 binding activity of the various anti-FGF-8 neutralizing CDR-grafted antibodies was measured and compared through BIAcore 2000 using compound 1 as a partial peptide of FGF-8 with the C terminal labeled with biotin in the following manner. The anti-FGF-8 neutralizing chimeric antibody KM3034 derived from CHO/DG44 cells obtained in 3. (1) of Reference Example 1 was used as a positive control.
HBS-EP was used as a sample diluent and a buffer during measurement. First, Sensor Chip SA (manufactured by BIACORE) was installed, and 5 μL of compound 1 labeled with biotin which had been adjusted to 0.05 μg/mL was added at a flow rate of 5 μL/min. Then, 5 μL of a 10 mmol/L glycine-hydrochloride solution (pH 1.5) was added twice continuously to wash the tip surface. The immobilization amount of the FGF-8 peptide was 35 RU.
60 μL of each of the antibody solutions was added to an FGF-8 peptide immobilized flow cell at a flow rate of 20 μL/min, and the dissociation reaction was then monitored for 3 minutes. After the dissociation reaction, 20 μL of 10 mmol/L glycine-hydrochloride solution (pH 1.5) was added twice continuously to regenerate the chip surface. This cycle was performed on the antibody solution at various concentrations (from 50 to 1.85 μg/mL) to obtain sensor grams at various concentrations. The sensor grams of the respective antibodies were converted to sensor grams of specific reactions by deduceing a sensor gram obtained using the chimeric antibody KM871 to GD3 as a negative control.
A general note: SPR reads the build-up and loss of mass on a sensor chip optically.

The values below come from patent US7708999B2, “Remedies for arthritis” (Kyowa Hakko Kirin Co., Ltd., priority 2001, dated 2010).

On to `CN(Cc1cnc2nc(N)nc(N)c2n1)c1ccc(C(=O)N[C@@H](CCC(=O)O)C(=O)O)cc1` [methotrexate], for which, in test [1], the Bone destruction score is listed as 0.9 ± 0.4; the “Bone destruction score (% inhibition)” value is recorded as 80%; the “inhibition of the increase in paw volume, adjuvant-untreated paw” value was determined as 90%; the “inhibition of the increase (decrease) in amount of glycosaminoglycan in urine” value was 79%. In addition, the “inhibition of the increase (decrease) in amount of deoxypyridinoline in urine” value in test [1] was 34%.

In the case of `C[C@]12C=CC(=O)C=C1CC[C@@H]1[C@@H]2[C@@H](O)C[C@@]2(C)[C@H]1CC[C@]2(O)C(=O)CO` [prednisolone, Prednisolone], in test [1], the Bone destruction score is given as 1.8 ± 0.7; the “Bone destruction score (% inhibition)” value is 61%; the “inhibition of the increase in paw volume, adjuvant-untreated paw” value is 51%; the “inhibition of the increase (decrease) in amount of glycosaminoglycan in urine” value was found to be 18%. Also, the “inhibition of the increase (decrease) in amount of deoxypyridinoline in urine” value in test [1] amounted to 38%.

B1: HV0LV2-2/CHO: CHO/DG44 cell-derived anti-FGF-8 neutralizing CDR-grafted antibody, VH HV.0, VL LV.2-2 (SEQ ID NO. 47) (antibody, V domains shown)
VH: QVQLVQSGAEVKKPGASVKVSCKASGYTFTDYYLNWVRQAPGQGLEWMGEIDPGSDSIYYNENLEGRVTITADTSTSTAYMELSSLRSEDTAVYYCARYGYSRYDVRFVYWGQGTLVTVSS
VL: DVVMTQSPLSLPVTPGEPASISCRSSQSLVHSNGRTYLEWYLQKPGQSPQLLIYKVSNRISGVPDRFSGSGSGTDFTLKISRVEAEDVGVYFCFQGSHVPYTFGQGTKVEIK
In the case of B1, in test [2], the “binding reaction [resonance signal (RU)]” value is recorded as “the lower binding reaction”.

B2: HV0LV0/CHO: CHO/DG44 cell-derived anti-FGF-8 neutralizing CDR-grafted antibody, VH HV.0, VL LV.0 (antibody, V domains shown)
VH: QVQLVQSGAEVKKPGASVKVSCKASGYTFTDYYLNWVRQAPGQGLEWMGEIDPGSDSIYYNENLEGRVTITADTSTSTAYMELSSLRSEDTAVYYCARYGYSRYDVRFVYWGQGTLVTVSS
VL: DIVMTQSPLSLPVTPGEPASISCRSSQSLVHSNGRTYLEWYLQKPGQSPQLLIYKVSNRISGVPDRFSGSGSGTDFTLKISRVEAEDVGVYYCFQGSHVPYTFGQGTKVEIK
On to B2, for which the “binding reaction [resonance signal (RU)]” value in test [2] was “the lowest binding reaction”.

B3: KM3034: anti-FGF-8 neutralizing human chimeric antibody, VH SEQ ID NO. 5, VL SEQ ID NO. 6, human γ1/κ, CHO/DG44 cell-derived (FERM BP-7836) (antibody, listed as Mus musculus, V domains shown)
VH: QVQLQQSGAEVARPGASVKLSCKASGYTFTDYYLNWVKQRSGQGLEWIGEIDPGSDSIYYNENLEGRATLTADKSSSTAYMQLNSLTSEDSAVYFCARYGYSRYDVRFVYWGQGTLVTVST
VL: DVLMTQTPLSLPVSLGDQASISCRSSQSLVHSNGRTYLEWYLQKPGQSPKVLIYKVSNRISGVPDRFSGSGSGTDFTLKISRVEAEDLGVYFCFQGSHVPYTFGGGTKLEIK
Regarding B3, the “binding reaction [resonance signal (RU)]” value in test [2] is given as “the highest binding reaction”.

B4: HV0LV4-2/CHO: CHO/DG44 cell-derived anti-FGF-8 neutralizing CDR-grafted antibody, VH HV.0, VL LV.4-2 (SEQ ID NO. 43) (antibody, V domains shown)
VH: QVQLVQSGAEVKKPGASVKVSCKASGYTFTDYYLNWVRQAPGQGLEWMGEIDPGSDSIYYNENLEGRVTITADTSTSTAYMELSSLRSEDTAVYYCARYGYSRYDVRFVYWGQGTLVTVSS
VL: DVVMTQSPLSLPVSLGEPASISCRSSQSLVHSNGRTYLEWYLQKPGQSPQLLIYKVSNRISGVPDRFSGSGSGTDFTLKISRVEAEDVGVYFCFQGSHVPYTFGQGTKVEIK
For B4, the “binding reaction [resonance signal (RU)]” value in test [2] is “the lower binding reaction”.

B5: HV0LV6/CHO: CHO/DG44 cell-derived anti-FGF-8 neutralizing CDR-grafted antibody, VH HV.0 (SEQ ID NO. 18), VL LV.6 (SEQ ID NO. 21) (antibody, V domains shown)
VH: QVQLVQSGAEVKKPGASVKVSCKASGYTFTDYYLNWVRQAPGQGLEWMGEIDPGSDSIYYNENLEGRVTITADTSTSTAYMELSSLRSEDTAVYYCARYGYSRYDVRFVYWGQGTLVTVSS
VL: DVVMTQSPLSLPVSLGEPASISCRSSQSLVHSNGRTYLEWYLQKPGQSPKVLIYKVSNRISGVPDRFSGSGSGTDFTLKISRVEAEDVGVYFCFQGSHVPYTFGQGTKVEIK
modifications: HV.0, a designed amino acid sequence of VH of an anti-FGF-8 CDR-grafted neutralizing antibody; LV.6, a designed amino acid sequence of VL of an anti-FGF-8 CDR-grafted neutralizing antibody
For the molecule B5, in test [2], the “binding reaction [resonance signal (RU)]” value is recorded as “the highest binding reaction”.

B6: HV0LV3-2/CHO: CHO/DG44 cell-derived anti-FGF-8 neutralizing CDR-grafted antibody, VH HV.0, VL LV.3-2 (SEQ ID NO. 45) (antibody, V domains shown)
VH: QVQLVQSGAEVKKPGASVKVSCKASGYTFTDYYLNWVRQAPGQGLEWMGEIDPGSDSIYYNENLEGRVTITADTSTSTAYMELSSLRSEDTAVYYCARYGYSRYDVRFVYWGQGTLVTVSS
VL: DIVMTQSPLSLPVSLGEPASISCRSSQSLVHSNGRTYLEWYLQKPGQSPQLLIYKVSNRISGVPDRFSGSGSGTDFTLKISRVEAEDVGVYFCFQGSHVPYTFGQGTKVEIK
B6: the “binding reaction [resonance signal (RU)]” value in test [2] is “the lower binding reaction”.
